Values of other authors in US5891887A, “Use of [R-(Z)]-α-(methoxyimino)-α-(1-azabicyclo [2.2.2.]oct-3-yl)acetonitrile to reduce amyloid βA4 formation in alzheimer's disease” (priority 1994, dated 1999).

Tested on: m1 and/or m3 receptor subtypes
Conditions: by activation of m1 and/or m3 receptor subtypes; literature

SMILES | Production of non-amyloidogenic APP fragments
CC1OC2(CS1)CN1CCC2CC1 (stereo not drawn) [AF-102B] | enhance
CC(C[N+](C)(C)C)OC(N)=O (stereo not drawn) [bethanechol] | enhance
CCCCCCOc1nsnc1C1=CCCN(C)C1 [xanomeline] | enhance
